Target: T1, large-conductance Ca2+-activated K+ (BKCa) channel (IK(Ca)) (Rattus norvegicus, UniProt Q62976)
T1 construct: gene Kcnma1; native channel in GH3 pituitary cells
Assay: whole-cell patch clamp of IK(Ca), concentration-response; reversed by verruculogen
Assay type: cell-based

T1 sequence (Q62976 whole entry): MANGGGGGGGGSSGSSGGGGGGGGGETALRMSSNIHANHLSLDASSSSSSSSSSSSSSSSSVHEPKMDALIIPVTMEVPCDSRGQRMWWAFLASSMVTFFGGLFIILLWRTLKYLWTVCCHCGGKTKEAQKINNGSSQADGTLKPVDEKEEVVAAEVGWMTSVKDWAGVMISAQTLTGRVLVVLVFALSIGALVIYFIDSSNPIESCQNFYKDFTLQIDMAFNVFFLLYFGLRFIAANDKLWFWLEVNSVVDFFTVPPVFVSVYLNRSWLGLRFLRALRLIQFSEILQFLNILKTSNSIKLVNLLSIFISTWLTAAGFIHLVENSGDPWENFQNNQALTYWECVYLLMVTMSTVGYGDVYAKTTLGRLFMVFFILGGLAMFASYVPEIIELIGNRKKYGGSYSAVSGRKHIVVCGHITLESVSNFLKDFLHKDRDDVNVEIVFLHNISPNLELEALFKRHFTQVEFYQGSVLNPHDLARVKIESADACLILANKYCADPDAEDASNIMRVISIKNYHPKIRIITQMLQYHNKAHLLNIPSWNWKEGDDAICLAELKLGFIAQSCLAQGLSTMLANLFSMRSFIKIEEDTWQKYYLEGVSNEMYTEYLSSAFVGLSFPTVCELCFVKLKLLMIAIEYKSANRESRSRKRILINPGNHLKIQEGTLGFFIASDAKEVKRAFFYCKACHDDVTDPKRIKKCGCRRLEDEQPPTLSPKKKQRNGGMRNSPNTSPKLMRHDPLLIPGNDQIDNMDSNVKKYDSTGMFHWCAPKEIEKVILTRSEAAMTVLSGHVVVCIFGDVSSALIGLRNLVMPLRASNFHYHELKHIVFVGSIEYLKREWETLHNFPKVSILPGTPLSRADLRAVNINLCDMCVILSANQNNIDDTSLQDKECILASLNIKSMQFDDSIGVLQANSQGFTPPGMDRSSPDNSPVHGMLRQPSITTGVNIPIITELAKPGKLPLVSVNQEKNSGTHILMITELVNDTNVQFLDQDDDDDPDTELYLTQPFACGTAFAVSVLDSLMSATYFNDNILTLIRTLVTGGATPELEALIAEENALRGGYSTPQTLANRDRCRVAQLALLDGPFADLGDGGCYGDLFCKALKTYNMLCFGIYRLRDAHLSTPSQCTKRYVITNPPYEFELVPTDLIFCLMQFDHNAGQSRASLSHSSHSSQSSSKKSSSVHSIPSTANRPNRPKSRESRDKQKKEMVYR

With `COc1cc(/C=C/c2ccc(O)cc2)cc(OC)c1` [PTER, trans-3,5-dimethoxy-4′-hydroxystilbene] the EC50 was 2230 nM.
